# Source: US20260159484A1, “AKT3 MODULATORS” (GEORGIAMUNE LLC, priority 2021, published 2026)
# Molecular target: T1, Akt3 (Mus musculus, UniProt Q9WUA6)
# T1 construct: endogenous in cells; host or cells: primary CD4 conventional T cells (CD4+/CD25-) from C57BL/6 mice
# Assay: Foxp3 induction assay (iTreg induction from CD4 conventional T cells); reported as Akt3 inhibition activity
# Assay type: cell-based
# Conditions: Foxp3 induction in CD4 Tconvs from C57/B16 mice, anti-CD3/anti-CD28, IL2, TGF-β, 3 days of culture, flow cytometry
# Procedure: Sorted or enriched (Miltenyi magnetic separation) CD4 conventional T cells (Tconvs -CD4+/CD25) from C57/B16 mice were used for the induction of iTregs. A 10 μg/mL plate-bound anti-CD3 antibody (50ul per well for 96-well plate), 2.5 μg/mL of soluble anti-CD28 antibody, 100 IU/mL of IL2 and 5 ng/mL of TGF-β in absence or presence of different concentrations of drug (usually titrating from 0.01 uM to 10 uM) were used. As negative control for induction, samples without TGF-β were used.
# After 3 days of culture in presence of stimulation, TGF-β and drug, cells were stained with fixable live/dead cell stain (Life Technologies, NY) for gating and exclusion of toxic doses. The mouse Foxp3 buffer kit was used to fix and permeabilize cells according to the manufacturer's instructions (BD Bioscience, San Jose, CA). The anti-CD4 antibody and anti-Foxp3 antibody were used to stain the cells. After staining, cells were acquired using flow cytometer.
# T1 sequence (Q9WUA6 whole entry): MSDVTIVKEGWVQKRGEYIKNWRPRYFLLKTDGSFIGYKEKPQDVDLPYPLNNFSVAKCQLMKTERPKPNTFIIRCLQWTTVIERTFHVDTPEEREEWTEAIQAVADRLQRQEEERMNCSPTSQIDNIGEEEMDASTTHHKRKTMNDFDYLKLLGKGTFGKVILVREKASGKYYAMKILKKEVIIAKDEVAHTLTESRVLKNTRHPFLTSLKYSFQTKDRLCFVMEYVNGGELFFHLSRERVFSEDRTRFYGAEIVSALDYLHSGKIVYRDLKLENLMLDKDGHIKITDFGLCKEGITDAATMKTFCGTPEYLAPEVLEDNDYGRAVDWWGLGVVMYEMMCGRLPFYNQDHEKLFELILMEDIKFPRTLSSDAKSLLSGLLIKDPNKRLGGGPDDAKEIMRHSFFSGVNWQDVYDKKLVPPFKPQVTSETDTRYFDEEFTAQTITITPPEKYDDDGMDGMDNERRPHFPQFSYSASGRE
row,Structure (SMILES),IC50
1,"CC(=O)c1ccccc1NC(=O)Cc1ccc(Nc2c(C)cnc3ccccc23)cc1 [Compound 3, N-(2-acetylphenyl)-2-(4-((3-methylquinolin-4-yl)amino)phenyl)acetamide]",< 1000 nM
2,"Cc1cnc2ccccc2c1Nc1ccc(CC(=O)Nc2ccccc2S(N)(=O)=O)cc1 [Compound 1, 2-(4-((3-methylquinolin-4-yl)amino)phenyl)-N-(2-sulfamoylphenyl)acetamide]",< 1000 nM
3,"CC(=O)c1ccccc1NC(=O)c1ccc(Nc2c(C)cnc3ccccc23)cc1 [Compound 2, N-(2-acetylphenyl)-4-((3-methylquinolin-4-yl)amino)benzamide]",< 1000 nM

# The remaining lines, values ahead:
row,IC50,Structure (SMILES)
1,< 2000 nM,"CC(=O)c1cccc(NC(=O)Cc2ccc(Nc3cc(C)nc4ccccc34)cc2)c1 [Compound 5, N-(3-acetylphenyl)-2-(4-((2-methylquinolin-4-yl)amino)phenyl)acetamide]"
2,< 5000 nM,"CC(=O)c1cnccc1NC(=O)Cc1ccc(Nc2cc(C)nc3ccccc23)cc1 [Compound 6, N-(3-acetylpyridin-4-yl)-2-(4-((2-methylquinolin-4-yl)amino)phenyl)acetamide]"
